Marks after values point to notes of the source that are not given here. Ends that are not written are not given here.
Experiments:
[1] = test system: MDA-MB-231; assay: Matrigel cell invasion assay, MDA-MB-231; format: cell-based, human
Protocol: (§1) Cellular invasion was determined by addition of 5×10^4cells to growth factor-reduced Matrigel invasion chambers (BD Biosciences Discovery Labware, Bedford, Mass.) (Taylor et al., 2003b; Passaniti et al., 1992, Lab Invest 67, 519-528). Additives to the Matrigel® plugs were pre-incubated together in a total volume of 100 μl PBS at RT for 10 min, after which each additive was added to the Matrigel. Growth factors (2.0 or 0.2 nM), peptide (2 μg/ml), or antibody (1 μg/ml) were added to cells in low serum (0.1% fetal bovine serum [FBS]) medium. Baseline and chemoattractant-based invasion (10% FBS) were included. The number of invading cells was determined by counting the number of cells on the bottom of the invasion chamber membrane after staining at 100× magnification after 24 h (MDA-MB-231) or 48 h (MCF-7, MDA-MB-468). The results of three to five separate experiments are presented.

[2] = test system: MCF-7; assay: Matrigel cell invasion assay, MCF-7; format: cell-based, human; conditions: 48 h
Protocol: as §1

[3] = target: T1, recombinant human Flt-1 fusion protein (Homo sapiens, UniProt P17948); assay: Free peptide binding and competition ELISA, Flt-1-coated wells
T1 construct: purchased R & D Systems
Protocol: Competition assays were done with 2.5 or 25 U/ml heparin (Sigma, St. Louis, Mo.). BP1, 3, 4, and a scrambled version of BP3 (scrBP3) were synthesized with a linker followed by the FLAG epitope ([…] SEQ ID NO:5) at the C-terminus. Thirty minutes after addition of the first reagent, the second reagent was added, followed by another 30 minute incubation. Peptide binding was assessed by probing for the FLAG epitope (Prickett et al., Biotechniques 7:580-9, 1989; Castrucci et al., J. Virol. 66:4647-53, 1992). Absorbance was read at 490 nm.

[4] = test system: MCF-7; assay: Wound-healing (motility) assay, MCF-7; format: cell-based, human; conditions: for Relative activity: unit assumed; for Migrating cells: 18-24 h
Protocol: MCF-7, MDA-MB-23 1, and MDA-MB-468 breast tumor cell lines or HECs were seeded onto sterile glass coverslips in Petri dishes or six-well plates. When the cells were 70-80% confluent, the monolayers were scratched with a sterile plastic pipet tip.
Inhibitor concentrations were 50 μM PD98059 (PD98) (mitogen activated protein kinase-kinase 1 [MEK1] inhibitor), 5 nM Wortmannin (phosphatidyl inositol 3 kinase [PI3K] inhibitor), or human recombinant soluble Flt-1 (sFlt-1) (R&D Systems). […] Cells were pre-incubated with PD98 and Wortmannin for 15-30 min before addition of PlGF. Stained (Wright-Giemsa) and mounted coverslips were examined microscopically. Five to ten 100× fields were evaluated by counting the number of cells separated from the wound edges and which appeared to be migrating toward the center of the wound. Results are reported as the average number of cells migrating into the wound/100× field. In some cases data from separate experiments were combined to accommodate inclusion of various treatments in the tables.
Antibody concentration was 1 μg/ml. MEK1 inhibitor, PD98059 (PD98), 50 μM. PI3K inhibitor, Wortmannin, 5 nM. […] Values for antibody and inhibitor treatments were from separate experiments which included all relevant controls. […] UT denotes untreated controls. *P<0.01 (ANOVA) compared to UT; † P<0.02 (ANOVA) compared to PlGF only. ‡ P<0.001 (ANOVA) compared to PlGF only.

[5] = test system: microvessels in PlGF-containing Matrigel plugs; assay: Matrigel basement membrane plug angiogenesis assay; format: in vivo, nude mice; conditions: PlGF-containing implants ± BP1, s.c.; PBS controls 16.2±11.4
Excerpt: To further investigate the effect of PlGF binding peptides on endothelial cell migration and angiogenesis, Matrigel basement membrane plugs containing PlGF, BP1, BP2, or PBS were implanted s.c. on the flanks of nude mice. The number of interior microvessels in the PBS controls was 16.2±11.4/mm^2. PlGF-only implants contained 28.9±17.2/mm^2 (1.8-fold vs. mock-treated implants), and implants with PlGF and BP1 contained only 12.3±13.0 microvessels/mm^2 (P<0.02).

[6] = test system: MCF-7 human breast cancer cells; format: cell-based; conditions: human, 24 h, 2 μM
Protocol: MTT (3-(4,5-dimethylthiazolyl-2)-2,5-diphenyltetrazolium bromide, Sigma) assays were performed under conditions of low serum (1%) to determine PlGF effects on cell viability, the toxicity of the peptides, and their effect on PlGF-mediated breast tumor cell growth (Mosmann, 1983, J Immunol Meth 65:55-63; Modrak et al., 2000, Biochem Biophys Res Commun 268:603-606). Peptide concentration was 1-2 μM, and the concentration of exogenous PlGF was 2 nM. The human breast tumor lines tested were: MDA-MB-231, MDA-MB-468 and MCF-7 (ATCC, Mannasses, Va.). Briefly, 96-well plates were seeded with 5-10×10^4 cells/ml in medium containing 1% fetal bovine serum (FBS). After 24 h, cells were treated with individual peptides at a concentration of 1-2 μM (4 binding peptides), in quadruplicate, and/or rhuPlGF at a 2-nM concentration. After the designated time points, 0.5 mg/ml MTT (5 mg/ml stock diluted 1:10 in RPMI medium with no serum) was added to the wells (Mosmann, 1983). When purple crystals were clearly visible in the cells, and the plate appeared to be fully developed, the reaction was terminated with acid alcohol (0.04M HCl in isopropanol). Absorbance of the dissolved crystals was read at 570 nm. The 24-h time point was chosen because the in vitro effects of PlGF on tumor cell migration were measurable at this time (see wound-healing assay below). These assays were also performed using medium with 10% FBS, with similar results.

T1 sequence (P17948 with tags, fused parts or gaps limits assumed): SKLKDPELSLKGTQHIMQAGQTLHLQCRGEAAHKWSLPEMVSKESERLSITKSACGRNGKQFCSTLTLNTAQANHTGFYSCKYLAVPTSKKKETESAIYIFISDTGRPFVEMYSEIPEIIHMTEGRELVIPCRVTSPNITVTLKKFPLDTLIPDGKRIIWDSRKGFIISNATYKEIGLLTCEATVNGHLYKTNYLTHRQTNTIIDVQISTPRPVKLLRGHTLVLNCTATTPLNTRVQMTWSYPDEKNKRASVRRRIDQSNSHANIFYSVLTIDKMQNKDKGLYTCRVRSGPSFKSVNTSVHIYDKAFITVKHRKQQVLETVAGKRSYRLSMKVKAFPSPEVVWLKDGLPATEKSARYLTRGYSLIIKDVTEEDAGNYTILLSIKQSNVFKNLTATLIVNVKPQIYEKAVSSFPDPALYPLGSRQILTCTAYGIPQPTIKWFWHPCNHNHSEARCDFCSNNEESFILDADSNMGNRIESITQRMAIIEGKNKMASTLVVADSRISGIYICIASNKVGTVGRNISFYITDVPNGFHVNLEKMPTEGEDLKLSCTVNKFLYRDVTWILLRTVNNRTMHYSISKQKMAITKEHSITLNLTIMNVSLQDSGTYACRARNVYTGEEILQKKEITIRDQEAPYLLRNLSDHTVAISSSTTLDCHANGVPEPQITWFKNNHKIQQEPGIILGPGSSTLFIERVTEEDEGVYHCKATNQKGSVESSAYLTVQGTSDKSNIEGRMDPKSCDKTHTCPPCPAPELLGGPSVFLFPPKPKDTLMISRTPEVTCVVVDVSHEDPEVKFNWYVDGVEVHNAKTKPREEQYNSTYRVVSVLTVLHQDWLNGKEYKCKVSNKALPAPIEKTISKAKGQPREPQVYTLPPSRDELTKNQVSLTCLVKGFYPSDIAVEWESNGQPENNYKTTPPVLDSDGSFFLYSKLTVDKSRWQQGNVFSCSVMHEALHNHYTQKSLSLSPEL

With SHRYRLAIQLHASDSSSSCV [BP1] the “Average fold-change in the number of cells on the membrane compared to untreated controls” value (“Average fold-change in the number” for short) ([1]; PlGF 0.2 nM ± peptide 2 μg/ml, 24 h) was 1.3 ± 0.1 fold, the “invading cells, PlGF plus peptide” value ([1]; PlGF-stimulated invasion with added peptide, 24 h) was 15±4.2 cells and the “decrease in PlGF-stimulated invasion” value ([1]; added peptide) was 50%. The “Average fold-change in the number” value ([1]; peptide 2 μg/ml alone, 24 h) was 1.0 ± 0.6 fold, the “Average fold-change in the number” value ([2]; PlGF 0.2 nM ± peptide 2 μg/ml) was 0.3 ± 0.0 fold and the “Average fold-change in the number” value ([2]; peptide 2 μg/ml alone) was 0.7 ± 0.4 fold. The “binding to Flt-1, fold over background” value [3] was 10 fold, the inhibition at 1 µM ([3]; 1 μM BP1 followed by 2.5 U/ml heparin, read-out: inhibition of BP1 binding to Flt-1, BP1 added prior to heparin) was 13% and the “binding to immobilized Flt-1 (A490), BP1 only” value ([3]; 5 μM BP1 only) was 0.527±0.025. For the same sequence, the “binding to immobilized Flt-1 (A490), with added free Flt-1” value ([3]; 5 μM BP1 with added free Flt-1 (2 nM)) was 0.327±0.127, the “decrease in BP1 binding to Flt-1, heparin added before BP1” value ([3]; 2.5 U/ml heparin followed by 1 μM BP1) was 64% and the “effect of PlGF on the binding of BP1 to Flt-1” value ([3]; PlGF between 1 and 100 nM) was “no significant effect”. The “decrease in binding of BP1 to immobilized Flt-1 by free Flt-1” value ([3]; free Flt-1 2 nM, 5 μM BP1) was 38%, the “binding to Flt-1 (A490)” value ([3]; peptide with C-terminal FLAG epitope) was 0.886±0.096 and the Relative activity ([4]; PlGF 2 nM ± test agent, relative to PlGF-only value) was 45%. The Relative activity ([4]; VEGF 2 nM ± test agent, relative to VEGF-only value) was 102%, the “effect on PlGF-stimulated motility (in words)” value ([4]; antibody 1 μg/ml, peptide 2 μM) was “inhibited” and the Migrating cells ([4]; growth factor PlGF 2 nM ± test agent (Flt-1 2 nM, peptide 2 μM, antibody 1 μg/ml)) was 10.2 ± 7.8† cells/100× field. For the same sequence, the Migrating cells ([4]; growth factor VEGF 2 nM ± test agent) was 12.9 ± 2.9 cells/100× field, the interior microvessels [5] was 12.3±13.0 /mm^2 and the “viability lowered, peptide alone” value [6] was 21%.

— US7642239B2, “Inhibition of placenta growth factor (PLGF) mediated metastasis and/or angiogenesis” (Center for Molecular Medicine and Immunology, priority 2005, dated 2010)
